From patent publication US20080299166A1, “NOVEL BIOMATERIALS, THEIR PREPARATION AND USE” (priority 2002, published 2008)

Experiment: In vitro release of Ketotifen-hydrogenfumarate from drug-loaded polymeric matrix
Assay type: physicochemical
Details: under the same conditions (stirred aqueous system)
Description: Two consecutive batches of the polymeric matrix were prepared at lab scale and loaded with the selected water-soluble investigational drug, Ketotifen hydrogenfumarate in accordance with the method described in Example 11. The in vitro release profile of the Ketotifen depot formulation was carried out as follows: […]
1 g of the dry polymeric matrix loaded with Ketotifen-hydrogenfumarate according to Example 11. was stirred with 600 r.p.m. in 50 ml of deionised water at 37° C. The released amount of Ketotifen-hydrogenfumarate was determined by HPLC.
Matrices with 8% Ketotifen load were prepared as described in Example 11. Using two different Hyaluronic acid containing reaction mixtures. One contained 1%, while the other 0.5% hyaluronic acid. […] (See Table 7.) The in vitro dissolution test was performed as described in Example 12.

release compared with the matrix: much faster
Structure (SMILES): CN1CCC(=C2c3ccccc3CC(=O)c3sccc32)CC1 [non-formulated plain Ketotifen, Ketotifen-hydrogenfumarate]
